# Source: EP4424327A1, “METHOD OR AGENT WITH HDAC REGULATOR, FOR TREATMENT OF DIABETES AND COMPLICATIONS” (Biozipcode, Inc., priority 2021, dated 2023)
# Where a SMILES comes first, the peptide text is derived from it. [ ]: non-standard residue; d: D form. Aoe = N[C@@H](CCCCCC(=O)[C@@H]1CO1)C(=O)O
# Test: Treatment of diabetes mellitus with other HDAC regulators instead of givinostat (Example 7)
# Assay type: in vivo
# Settings: used instead of givinostat; model and dose not stated
row,Structure (SMILES),diabetes mellitus outcome
1,O=C(O)CCCc1ccccc1 [4-phenylbutyric acid],similarly cured
2,O=C(CCCCCCSc1ccc2ccccc2c1)NO [(N-hydroxy-7-2-naphthylthio)heptanomide],similarly cured
3,CCCC(=O)OCOC(=O)C(C)(C)C [(pivaloyloxy)methyl butyrate],similarly cured
4,CN(C)CCCNC(=O)/C(=C/CCCCC(=O)NO)COc1cccc2ccccc12 [CG200745],similarly cured
5,O=C(CCC1=CCCN(CCCc2ccccc2)C1=O)NO [KBH-A42],similarly cured
6,CN(C)c1ccc(C(=O)NCc2ccc(/C=C/C(=O)NO)cc2)cc1 [SK-7041],similarly cured
7,O=C(CCCCCCC(=O)Nc1ccc([C@H]2O[C@@H](CSc3nc(-c4ccccc4)c(-c4ccccc4)o3)C[C@@H](c3ccc(CO)cc3)O2)cc1)NO [Tubacin],similarly cured
8,CN(C)Cc1c(C(=O)NCCOc2ccc(C(=O)NO)cc2)oc2ccccc12 [abexinostat],similarly cured
9,O=C(CCCCCCCC(=O)NO)NO [azelaoyl-bis-hydroxamic acid],similarly cured
10,O=C(/C=C/c1cccc(S(=O)(=O)Nc2ccccc2)c1)NO [belinostat],similarly cured
11,O=C(/C=C/c1ccc(CN(CCO)CCc2c[nH]c3ccccc23)cc1)NO [dacinostat],similarly cured
12,C=CCSSSCC=C [diallyl trisulfide],similarly cured
13,Nc1ccccc1NC(=O)c1ccc(CNC(=O)OCc2cccnc2)cc1 [entinostat],similarly cured
14,O=C(C=Cc1cccc(C(=O)NO)c1)NO [m-carboxycinnamic acid bis-hydroxamide],similarly cured
15,Nc1ccccc1NC(=O)c1ccc(CNc2nccc(-c3cccnc3)n2)cc1 [mocetinostat],similarly cured
16,O=C(NO)c1cnc(N2C[C@@H]3[C@H](C2)[C@H]3NCc2ccc3cc(F)ccc3n2)nc1 [nanatinostat],similarly cured
17,CCCCc1nc2cc(/C=C/C(=O)NO)ccc2n1CCN(CC)CC [pracinostat],similarly cured
18,Cn1cc(CNCC2CCN(c3ncc(C(=O)NO)cn3)CC2)c2ccccc21 [quisinostat],similarly cured
19,CN(C)Cc1ccc(S(=O)(=O)n2ccc(/C=C/C(=O)NO)c2)cc1 [resminostat],similarly cured
20,O=C(CCCCCCNC(=O)c1cnc(N(c2ccccc2)c2ccccc2)nc1)NO [rocilinostat],similarly cured
21,O=C(CCCCCN1C(=O)c2cccc3cccc(c23)C1=O)NO [scriptaid],similarly cured
22,CCCC(=O)[O-].[Na+] [sodium butyrate],similarly cured
23,CC(=O)Nc1ccc(C(=O)Nc2ccccc2N)cc1 [tacedinaline],similarly cured
24,O=C1N[C@@H](Cc2ccccc2)C(=O)N2CCC[C@@H]2C(=O)N[C@@H](CCCCCC(=O)[C@@H]2CO2)C(=O)N[C@H]1Cc1ccccc1 [trapoxin] (cyclo(FF[dP][Aoe])),similarly cured
25,CC(/C=C/C(=O)NO)=C\[C@@H](C)C(=O)c1ccc(N(C)C)cc1 [trichostatin A],similarly cured
26,"O=C(CCCCCCC(=O)Nc1ccccc1)NO [vorinostat, suberoylanilide hydroxamic acid]",similarly cured
